“Also recorded” adds a separate entry of the source.
Assays:
[1] = system: phospho-SRSF6 levels in MDA-MB-468 cells; assay: Inhibition of phospho-SRSF6 levels in MDA-MB-468 cells (Western blot); format: cell-based; conditions: Homo sapiens, 100 nM, 2 hours, normalized by GAPDH, read-out: % Intensity of p-SRSF6 signal at 100 nM compared to DMSO control
Method: FIG. 1: FIG. 1 provides a representative Western blot showing reduction of phosphorylated-SRSF6 (P-SRSF6) in MDA-MB 468 cells by compounds of the invention. GAPDH was probed for by Western blotting to control for equal protein loading and for normalization of samples. The numbers below the blots show percent intensity of P-SRSF6 signal at 100 nM compared to DMSO control.
Assessment of Inhibition of Phospho-SRSF6 Levels in MDA-MB-468 Cells
MDA-MB-468 cells (ATCC, HTB-132) were cultured in DMEM (BioConcept cat. no. 1-26F03) supplemented with 10% FBS (Sigma cat. no. F9665), 1% Na-pyruvate (Sigma cat. no. S8636), 1% Penicillin-Streptomycin (BioConcept cat. no. 4-01F00-H). When cells reached a density of 70% in 6-well plates (TPP cat. no. 92006), they were treated either with the test compound vehicle DMSO, or with experimental compounds at a final concentration of 100 nM for 2 hours. Thereafter, the culture medium was removed and cells were collected by scraping in Lysis Buffer (20 mM Tris HCl pH7.5, 150 mM NaCl, 1 mM EGTA, 1 mM EDTA, 1% Triton and 1% NP-40) containing protease and phosphatase inhibitors (Halt™ Protease&Phosphatase inhibitor cocktail 100× ThermoScientific cat. no. 1861281) and 1 mM PMSF (Fluka cat. no. 93482). Cleared lysates were stored in Eppendorf tubes at −80° C. until use, and protein concentration in lysates was determined using Pierce 660 nm Protein Assay Reagent (ThermoScientific cat. no. 22660). 20 μg proteins were diluted in 4× Laemmli buffer (Biorad cat. no. 161-0747) containing 10% beta-mercaptoethanol, separated by SDS-PAGE using 10% gels, and then transferred to PVDF membranes (Trans Blot Turbo Transfer Pack BioRad cat. no. 1704156) by Trans-Blot® Turbo™ System semidry blotting methodology (BioRad). Primary antibodies were incubated in TBS-0.1% Tween-20 buffer containing 3% BSA Bovine Albumin Fr.V (Millipore cat. no. 81-053-3) overnight at 4° C. The following primary antibodies were used: Mouse anti-phosphoepitope SR proteins clone 1H4 (Millipore cat. no. MABE50) diluted 1:5000, and rabbit anti-GAPDH clone 14C10 (Cell Signaling cat. no. 2118S) to control for equal protein loading, diluted 1:2000. HRP-conjugated secondary antibodies were incubated one hour at room temperature diluted 1:5000 in TBS-0.1% Tween-20 buffer containing 5% nonfat-dried bovine milk (Sigma cat. no. M7409). The following secondary antibodies were used: Goat anti-mouse-HRP (Jackson cat. no. 115-035-146) and goat anti-rabbit-HRP (Jackson cat. no. 111-035-144). Membranes were incubated with ECL Prime Western Blot Detection Reagent (Amersham cat. no. RPN2236) to detect specific signals using Fusion SOLO S device (Vilber Lourmat). Pixel intensity of the phopsho-SRSF6 (MW 55 kDa in reference to markers) and GAPDH (MW 37 kDa) signals in the Western blots were determined using Evolution-Capt image analysis software (v17.01, Vilber Lourmat). DMSO control was used to set the phospho-SRSF6 signal at baseline, phospho-SRSF6 signals for each sample were normalized by the respective GAPDH signals and percent intensity of P-SRSF6 signal at 100 nM compound compared to DMSO control was calculated (see FIG. 1).

recombinant human CLK3 = biological target: T1, recombinant human CLK3 (Homo sapiens, UniProt P49761); assay: CLK3 kinase assay (LANCE Ultra); format: biochemical; conditions: 0.5 nM CLK3, 300 μM ATP, 3 hours at 30° C.
T1 construct: purchased Thermo Fisher Scientific PV3826
T1 sequence (P49761 whole entry): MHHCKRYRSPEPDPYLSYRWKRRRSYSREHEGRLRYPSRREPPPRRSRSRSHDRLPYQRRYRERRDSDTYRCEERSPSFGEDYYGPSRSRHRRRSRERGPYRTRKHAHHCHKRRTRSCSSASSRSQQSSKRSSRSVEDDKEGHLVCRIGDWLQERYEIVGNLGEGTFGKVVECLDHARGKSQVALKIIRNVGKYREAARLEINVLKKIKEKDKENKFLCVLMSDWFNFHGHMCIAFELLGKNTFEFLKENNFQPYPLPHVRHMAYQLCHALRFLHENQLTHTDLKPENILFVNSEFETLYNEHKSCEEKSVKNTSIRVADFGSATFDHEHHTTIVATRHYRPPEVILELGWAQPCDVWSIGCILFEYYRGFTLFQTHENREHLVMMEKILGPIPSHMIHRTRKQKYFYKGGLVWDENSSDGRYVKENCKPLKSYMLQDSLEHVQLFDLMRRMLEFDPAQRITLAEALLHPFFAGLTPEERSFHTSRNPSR
In short: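 TR-FRET (LANCE Ultra) read-out of phospho-CREBtide after a 3 h, 30 °C reaction containing 300 μM ATP, 50 nM ULight-CREBtide and 0.5 nM recombinant human CLK3, compounds in 1% DMSO.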

[2] = system: CAL-51 triple-negative breast cancer xenograft; assay: CAL-51 triple-negative breast cancer mouse xenograft model; conditions: for tumor volumes smaller compared to the vehicle-treated group: day 21, female NCG mice; for tumor volumes compared with vehicle-treated animals (one-way ANOVA, P<0.05): day 21
Method: A pair match was performed when tumors reached an average volume of 100-150 mm^3 to distribute animals into treatment groups (n=8/group), and treatment of the respective groups was initiated. Tumor volumes (expressed in mm^3) were measured twice weekly using a caliper on days 1, 3, 7, 10, 14, 17 and 21 of the treatment period.
To this end, the CAL-51 triple-negative breast cancer xenograft model was used, in which the tumor cells are injected subcutaneously into the flanks of immunodeficient NCG mice (lack functional/mature T, B, and NK cells, and have reduced macrophage and dendritic cell function). […] CAL-51 cells were harvested when they were growing exponentially.
Female NCG mice were used for the study at 8-12 weeks of age (Charles River Laboratories). Mice were inoculated subcutaneously in the flank region with 1×10^7 CAL-51 cells in 50% Matrigel™ in a final injection volume of 0.1 mL/mouse. Once tumors reached an average size of 100-150 mm^3, a pair match was carried out to distribute mice to the different treatment groups.
Tumor volumes (expressed in mm^3) were measured in two dimensions using a caliper on days 1, 3, 7, 10, 14, 17 and 21 of the treatment period. […] Results represent mean values±SEM. Tumor volumes at the conclusion of the study were analyzed by one-way ANOVA analysis to compare treatment groups to the vehicle group. The significance level was set to P<0.05. Calculations were conducted using GraphPad™ Prism version 9.

MDA-MB-231 cells = assay: MDA-MB-231 proliferation assay; format: cell-based; conditions: Homo sapiens, 72 hours, YO-PRO-1 readout
In short: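 Cells seeded at 750/well in DMEM with 10% FBS, treated 72 h at 37 °C, 0.5% DMSO final. Cell number read by YO-PRO-1 fluorescence (485/530 nm), normalised to DMSO (100%) and time-of-addition cells (0%); 4-parameter logistic fit with maximum fixed at 100%.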

Row | SMILES | activity at 0.1 µM [1] [%] | IC50 (recombinant human CLK3) [nM] | tumor volumes smaller compared to the vehicle-treated group ([2]; 25 mg/kg daily orally) [%] | tumor volumes smaller compared to the vehicle-treated group ([2]; 60 mg/kg three times a week orally) [%] | tumor volumes compared with vehicle-treated animals (one-way ANOVA, P<0.05) ([2]; 60 mg/kg thrice weekly) | tumor volumes smaller compared to the vehicle-treated group ([2]; 85 mg/kg twice a week orally) [%] | tumor volumes compared with vehicle-treated animals (one-way ANOVA, P<0.05) ([2]; 85 mg/kg twice weekly) | tolerability, as evidenced by body weight assessments ([2]; oral 25, 60 or 85 mg/kg schedules, days 1-21, female NCG mice) | GI50 (MDA-MB-231 cells) [nM]
1 | COCCO/N=C1\c2cc(O[C@H]3CC[C@H](N)CC3)ccc2-c2ncnc(N)c2C1(C)C [Example 29, (6Z)-8-(trans-4-aminocyclohexoxy)-6-(2-methoxyethoxyimino)-5,5-dimethyl-benzo[h]quinazolin-4-amine] | 12 | 15.4 | 41.8 | 42.7 | significant; also recorded: significantly smaller | 46.8 | significant; also recorded: significantly smaller | well tolerated | 378
2 | CO/N=C1\c2cc(CC3CCNCC3)ccc2-c2ncnc(N)c2C1(C)C [Example 70, (6Z)-6-methoxyimino-5,5-dimethyl-8-(4-piperidylmethyl)benzo[h]quinazolin-4-amine] | 34 | 9.1 | – | – | – | – | – | – | 630
3 | CO/N=C1\c2cc(C[C@H]3CC[C@H](N)CC3)ccc2-c2ncnc(N)c2C1(C)C [Example 74, (6Z)-8-[(trans-4-aminocyclohexyl)methyl]-6-methoxyimino-5,5-dimethyl-benzo[h]quinazolin-4-amine] | 28 | 4.8 | – | – | – | – | – | – | 255
4 | C[C@H](O)CO/N=C1\c2cc(O[C@H]3CC[C@H](N)CC3)ccc2-c2ncnc(N)c2C1(C)C [Example 79, (2S)-1-[(Z)-[4-amino-8-(trans-4-aminocyclohexoxy)-5,5-dimethyl-benzo[h]quinazolin-6-ylidene]amino]oxypropan-2-ol] | 34 | 40.7 | – | – | – | – | – | – | 971
5 | COCCO/N=C1\c2cc(O[C@H]3CC[C@@H](N)CC3)ccc2-c2ncnc(N)c2C1(C)C [Example 82, (6Z)-8-(cis-4-aminocyclohexoxy)-6-(2-methoxyethoxyimino)-5,5-dimethyl-benzo[h]quinazolin-4-amine] | 15 | 9.7 | – | – | – | – | – | – | 98.5
6 | CC1(C)/C(=N/OCCC#N)c2cc(O[C@H]3CC[C@@H](N)CC3)ccc2-c2ncnc(N)c21 [Example 83, 3-[(Z)-[4-amino-8-(cis-4-aminocyclohexoxy)-5,5-dimethyl-benzo[h]quinazolin-6-ylidene]amino]oxypropanenitrile] | 9 | 4.9 | – | – | – | – | – | – | 96.2
7 | CC1(C)/C(=N/OCCO)c2cc(O[C@H]3CC[C@@H](N)CC3)ccc2-c2ncnc(N)c21 [Example 87, 2-[(Z)-[4-amino-8-(cis-4-aminocyclohexoxy)-5,5-dimethyl-benzo[h]quinazolin-6-ylidene]amino]oxyethanol] | 10 | 18.7 | – | – | – | – | – | – | 255
8 | COCCN1C[C@@H](CO/N=C2\c3cc(Br)ccc3-c3ncnc(N)c3C2(C)C)OC1=O [Example 90, (5S)-5-[[(Z)-(4-amino-8-bromo-5,5-dimethyl-benzo[h]quinazolin-6-ylidene)amino]oxymethyl]-3-(2-methoxyethyl)oxazolidin-2-one] | 29 | 9.37 | – | – | – | – | – | – | 863
9 | CC1(C)/C(=N/OC[C@@H]2CN(CCO)C(=O)O2)c2cc(Br)ccc2-c2ncnc(N)c21 [Example 91, (5S)-5-[[(Z)-(4-amino-8-bromo-5,5-dimethyl-benzo[h]quinazolin-6-ylidene)amino]oxymethyl]-3-(2-hydroxyethyl)oxazolidin-2-one] | 15 | 5.1 | – | – | – | – | – | – | 459
10 | CC1(C)/C(=N/OC[C@@H]2CNC(=O)O2)c2cc(I)ccc2-c2ncnc(N)c21 [Example 93, (5S)-5-[[(Z)-(4-amino-8-iodo-5,5-dimethyl-benzo[h]quinazolin-6-ylidene)amino]oxymethyl]oxazolidin-2-one] | 19 | 6.2 | – | – | – | – | – | – | 240
11 | CC1(C)/C(=N/OC[C@@H]2CN(CCO)C(=O)O2)c2cc(I)ccc2-c2ncnc(N)c21 [Example 97, (5S)-5-[[(Z)-(4-amino-8-iodo-5,5-dimethyl-benzo[h]quinazolin-6-ylidene)amino]oxymethyl]-3-(2-hydroxyethyl)oxazolidin-2-one] | 21 | 1.7 | – | – | – | – | – | – | 158
12 | COCCO/N=C1\c2cc(O[C@H]3CC[C@H](N)CC3)ccc2-c2ncnc(N)c2C12CCCC2 [Example 99, (6Z)-8-(trans-4-aminocyclohexoxy)-6-(2-methoxyethoxyimino)spiro[benzo[h]quinazoline-5,1′-cyclopentane]-4-amine] | 17 | 5.8 | – | – | – | – | – | – | 27.6
13 | N#CCCO/N=C1\c2cc(O[C@H]3CC[C@@H](N)CC3)ccc2-c2ncnc(N)c2C12CCCC2 [Example 101, 3-[(Z)-[4-amino-8-(cis-4-aminocyclohexoxy)spiro[benzo[h]quinazoline-5,1′-cyclopentane]-6-ylidene]amino]oxypropanenitrile] | 8 | 1.2 | – | – | – | – | – | – | 4.5
14 | N#CCCO/N=C1\c2cc(O[C@H]3CC[C@H](N)CC3)ccc2-c2ncnc(N)c2C12CCCC2 [Example 102, 3-[(Z)-[4-amino-8-(trans-4-aminocyclohexoxy)spiro[benzo[h]quinazoline-5,1′-cyclopentane]-6-ylidene]amino]oxypropanenitrile] | 7 | 2.9 | – | – | – | – | – | – | 10.1
15 | CC(F)(F)CCO/N=C1\c2cc(O[C@H]3CC[C@@H](N)CC3)ccc2-c2ncnc(N)c2C1(C)C [Example 115, (6Z)-8-(cis-4-aminocyclohexoxy)-6-(3,3-difluorobutoxyimino)-5,5-dimethyl-benzo[h]quinazolin-4-amine] | 17 | 19.4 | – | – | – | – | – | – | 102

From patent US12583825B2, “Benzo[h]quinazolin-4-amine and thieno[3,2-h]quinazolin-4-amine derivatives for the treatment of cancer” (Redona Therapeutics, Inc., priority 2020, dated 2026)
